{
  "source": "BigSolDB 2.1",
  "data": [
    {"smiles": "O=C(O)CCCCCCC(=O)O", "values": [
      {"measurement": "solubility (mole fraction)", "setting": "in THF, 283.15 K", "result": 0.0356},
      {"measurement": "solubility (mole fraction)", "setting": "in THF, 289.75 K", "result": 0.0437},
      {"measurement": "solubility (mole fraction)", "setting": "in THF, 296.85 K", "result": 0.0546},
      {"measurement": "solubility (mole fraction)", "setting": "in THF, 303.75 K", "result": 0.0665},
      {"measurement": "solubility (mole fraction)", "setting": "in THF, 310.75 K", "result": 0.0806},
      {"measurement": "solubility (mole fraction)", "setting": "in THF, 317.95 K", "result": 0.0982},
      {"measurement": "solubility (mole fraction)", "setting": "in THF, 324.95 K", "result": 0.117},
      {"measurement": "solubility (mole fraction)", "setting": "in THF, 331.95 K", "result": 0.141},
      {"measurement": "solubility (mole fraction)", "setting": "in acetone, 283.15 K", "result": 0.006},
      {"measurement": "solubility (mole fraction)", "setting": "in acetone, 289.95 K", "result": 0.00833},
      {"measurement": "solubility (mole fraction)", "setting": "in acetone, 296.85 K", "result": 0.0115},
      {"measurement": "solubility (mole fraction)", "setting": "in acetone, 303.75 K", "result": 0.0154},
      {"measurement": "solubility (mole fraction)", "setting": "in acetone, 310.75 K", "result": 0.0208},
      {"measurement": "solubility (mole fraction)", "setting": "in acetone, 317.55 K", "result": 0.0292},
      {"measurement": "solubility (mole fraction)", "setting": "in acetone, 322.75 K", "result": 0.035},
      {"measurement": "solubility (mole fraction)", "setting": "in ethanol, 283.25 K", "result": 0.0158},
      {"measurement": "solubility (mole fraction)", "setting": "in ethanol, 290.35 K", "result": 0.021},
      {"measurement": "solubility (mole fraction)", "setting": "in ethanol, 297.05 K", "result": 0.0281},
      {"measurement": "solubility (mole fraction)", "setting": "in ethanol, 303.85 K", "result": 0.0374},
      {"measurement": "solubility (mole fraction)", "setting": "in ethanol, 310.95 K", "result": 0.0491},
      {"measurement": "solubility (mole fraction)", "setting": "in ethanol, 317.85 K", "result": 0.0627},
      {"measurement": "solubility (mole fraction)", "setting": "in ethanol, 324.85 K", "result": 0.0795},
      {"measurement": "solubility (mole fraction)", "setting": "in ethyl acetate, 283.15 K", "result": 0.00167},
      {"measurement": "solubility (mole fraction)", "setting": "in ethyl acetate, 289.95 K", "result": 0.00227},
      {"measurement": "solubility (mole fraction)", "setting": "in ethyl acetate, 296.85 K", "result": 0.0031},
      {"measurement": "solubility (mole fraction)", "setting": "in ethyl acetate, 303.95 K", "result": 0.00462},
      {"measurement": "solubility (mole fraction)", "setting": "in ethyl acetate, 310.95 K", "result": 0.0065},
      {"measurement": "solubility (mole fraction)", "setting": "in ethyl acetate, 317.75 K", "result": 0.00902},
      {"measurement": "solubility (mole fraction)", "setting": "in ethyl acetate, 324.85 K", "result": 0.0125},
      {"measurement": "solubility (mole fraction)", "setting": "in ethyl acetate, 331.75 K", "result": 0.0186},
      {"measurement": "solubility (mole fraction)", "setting": "in isopropanol, 283.15 K", "result": 0.0145},
      {"measurement": "solubility (mole fraction)", "setting": "in isopropanol, 289.95 K", "result": 0.0198},
      {"measurement": "solubility (mole fraction)", "setting": "in isopropanol, 296.95 K", "result": 0.0271},
      {"measurement": "solubility (mole fraction)", "setting": "in isopropanol, 303.55 K", "result": 0.0368},
      {"measurement": "solubility (mole fraction)", "setting": "in isopropanol, 310.95 K", "result": 0.0486},
      {"measurement": "solubility (mole fraction)", "setting": "in isopropanol, 317.95 K", "result": 0.0639},
      {"measurement": "solubility (mole fraction)", "setting": "in isopropanol, 324.75 K", "result": 0.0816},
      {"measurement": "solubility (mole fraction)", "setting": "in methanol, 283.25 K", "result": 0.0179},
      {"measurement": "solubility (mole fraction)", "setting": "in methanol, 290.35 K", "result": 0.0242},
      {"measurement": "solubility (mole fraction)", "setting": "in methanol, 297.05 K", "result": 0.0322},
      {"measurement": "solubility (mole fraction)", "setting": "in methanol, 303.85 K", "result": 0.0443},
      {"measurement": "solubility (mole fraction)", "setting": "in methanol, 310.95 K", "result": 0.0572},
      {"measurement": "solubility (mole fraction)", "setting": "in methanol, 317.85 K", "result": 0.0748},
      {"measurement": "solubility (mole fraction)", "setting": "in methanol, 324.85 K", "result": 0.0951},
      {"measurement": "solubility (mole fraction)", "setting": "in n-propanol, 283.15 K", "result": 0.012},
      {"measurement": "solubility (mole fraction)", "setting": "in n-propanol, 289.85 K", "result": 0.017},
      {"measurement": "solubility (mole fraction)", "setting": "in n-propanol, 296.75 K", "result": 0.0233},
      {"measurement": "solubility (mole fraction)", "setting": "in n-propanol, 303.85 K", "result": 0.0308},
      {"measurement": "solubility (mole fraction)", "setting": "in n-propanol, 310.75 K", "result": 0.0422},
      {"measurement": "solubility (mole fraction)", "setting": "in n-propanol, 317.75 K", "result": 0.0559},
      {"measurement": "solubility (mole fraction)", "setting": "in n-propanol, 325.05 K", "result": 0.0718},
      {"measurement": "solubility (mole fraction)", "setting": "in water, 283.25 K", "result": "9.14e-05"},
      {"measurement": "solubility (mole fraction)", "setting": "in water, 290.25 K", "result": 0.000131},
      {"measurement": "solubility (mole fraction)", "setting": "in water, 297.15 K", "result": 0.0002},
      {"measurement": "solubility (mole fraction)", "setting": "in water, 303.85 K", "result": 0.000291},
      {"measurement": "solubility (mole fraction)", "setting": "in water, 310.85 K", "result": 0.000439},
      {"measurement": "solubility (mole fraction)", "setting": "in water, 318.15 K", "result": 0.000662},
      {"measurement": "solubility (mole fraction)", "setting": "in water, 325.15 K", "result": 0.00107},
      {"measurement": "solubility (mole fraction)", "setting": "in water, 332.45 K", "result": 0.0017},
      {"measurement": "solubility (mole fraction)", "setting": "in water, 339.15 K", "result": 0.00265}
    ]}
  ]
}
